Assay results: ChEMBL document CHEMBL1125524, “Adenosine A1 antagonists. 2. Structure-activity relationships on diuretic activities and protective effects against acute renal failure” (J Med Chem, 1992)

Legend:
[1] = tested on: Rattus norvegicus; assay: Ratio of urinary excretion value (urinary volume) in treated rats to that in control rats, at a peroral dose of 25 mg/Kg; type: functional, Urine
[2] = tested on: Rattus norvegicus; assay: Percent inhibition of serum creatinine by the compound given as ratio of Cr value in treated to vehicle treated ones after intraperitoneal administration of 1 mg/kg of compound to rats(vehicle 3.75+/-0.34); type: functional; details: ip
[3] = tested on: Rattus norvegicus; assay: Serum creatinine concentration measured after intraperitoneal administration of 10 mg/kg of compound to rats(vehicle 4.21+/-0.21); type: functional
[4] = tested on: Rattus norvegicus; assay: Oral diuretic activity was measured after oral administration of 25 mg/kg to rats(control volume is 0.74+/-0.07); type: functional, Urine
[5] = tested on: Rattus norvegicus; assay: Percent inhibition of Urea nitrogen by the compound given as ratio of UN value in treated to vehicle treated ones after intraperitoneal administration of 10 mg/kg of compound to rats(vehicle 144.1+/-6.1); type: functional; details: ip
[6] = tested on: Rattus norvegicus; assay: Urea nitrogen concentration measured after intraperitoneal administration of 1 mg/kg of compound to rats(vehicle 137.4+/-16.5); type: functional
[7] = tested on: Rattus norvegicus; assay: Effect on urinary excretion potassium and sodium after oral administration of 25 mg/kg to rats(potassium and sodium excretion in control rat is 0.172+/-0.015); type: functional, Urine
[8] = tested on: Rattus norvegicus; assay: Percent inhibition of serum creatinine by the compound given as ratio of Cr value in treated to vehicle treated ones after intraperitoneal administration of 10 mg/kg of compound to rats(vehicle 4.21+/-0.21); type: functional; details: ip
[9] = molecular target: T1, Adenosine receptor A1 (Cavia porcellus, UniProt P47745)
T1 sequence (P47745 whole entry): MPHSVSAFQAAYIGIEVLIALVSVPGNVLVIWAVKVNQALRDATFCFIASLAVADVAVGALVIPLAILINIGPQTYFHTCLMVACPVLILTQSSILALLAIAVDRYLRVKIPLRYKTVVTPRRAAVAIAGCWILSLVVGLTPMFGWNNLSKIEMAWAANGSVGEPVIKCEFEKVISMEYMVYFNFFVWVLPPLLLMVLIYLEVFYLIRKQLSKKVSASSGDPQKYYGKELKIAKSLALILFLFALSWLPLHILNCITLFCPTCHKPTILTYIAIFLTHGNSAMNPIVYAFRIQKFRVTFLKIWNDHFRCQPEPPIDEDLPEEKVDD
Description: Binding affinity against adenosine A1 receptor in guinea pig forebrain membranes using N6-[3H]cyclohexyladenosine as radioligand

[10] = molecular target: T2, Adenosine A2 receptor (Rattus norvegicus, UniProt P29276+P30543)
[11] = tested on: Rattus norvegicus; assay: Serum creatinine concentration measured after intraperitoneal administration of 1 mg/kg of compound to rats(vehicle 3.75+/-0.34); type: functional
[12] = tested on: Rattus norvegicus; assay: Ratio of urinary excretion value (Na+ concentration) in treated rats to that in control rats, at a peroral dose of 25 mg/Kg; type: functional, Urine
[13] = tested on: Rattus norvegicus; assay: Urea nitrogen concentration measured after intraperitoneal administration of 10 mg/kg of compound to rats(vehicle 144.1+/-6.1); type: functional
[14] = tested on: Rattus norvegicus; assay: Percent inhibition of Urea nitrogen by the compound given as ratio of UN value in treated to vehicle treated ones after intraperitoneal administration of 1 mg/kg of compound to rats(vehicle 137.4+/-16.5); type: functional; details: ip
[15] = tested on: Rattus norvegicus; assay: Ratio of sodium ion/potassium ion concentration in treated rats to that in control rats, at a peroral dose of 25 mg/Kg; type: functional
[16] = tested on: Rattus norvegicus; assay: Ratio of urinary excretion value (urinary volume) in treated rats to that in control rats, at a peroral dose of 6.25 mg/Kg; type: functional, Urine
[17] = tested on: Rattus norvegicus; assay: Serum creatinine concentration measured after intraperitoneal administration of 1 mg/kg of compound to rats(vehicle 4.70+/-0.17); type: functional
[18] = molecular target: T2, Adenosine A2 receptor; remark: listed apart in the source
Description: Binding affinity towards adenosine A2 receptor in rat striatal membranes using N-[3H]-ethyladenosin-5''-uronamide as radioligand

[19] = tested on: Rattus norvegicus; assay: Oral diuretic activity was measured after oral administration of 25 mg/kg to rats(control volume is 0.91+/-0.04); type: functional, Urine
[20] = tested on: Rattus norvegicus; assay: Ratio of urinary excretion value (urinary volume) in treated rats to that in control rats, at a peroral dose of 1.6 mg/Kg; type: functional, Urine
[21] = tested on: Rattus norvegicus; assay: Ratio of urinary excretion value (Na+ concentration) in treated rats to that in control rats, at a peroral dose of 1.6 mg/Kg; type: functional, Urine
[22] = tested on: Rattus norvegicus; assay: Urea nitrogen concentration measured after intraperitoneal administration of 1 mg/kg of compound to rats(vehicle 154.2+/-5.0); type: functional
[23] = tested on: Rattus norvegicus; assay: Effect on urinary excretion potassium and sodium after oral administration of 1.6 mg/kg to rats(potassium and sodium excretion in control rat is 0.173+/-0.015); type: functional, Urine
[24] = tested on: Rattus norvegicus; assay: Percent inhibition of Urea nitrogen by the compound given as ratio of UN value in treated to vehicle treated ones after intraperitoneal administration of 1 mg/kg of compound to rats(vehicle 154.2+/-5.0); type: functional; details: ip
[25] = molecular target: T3, Adenosine receptor A1 (Rattus norvegicus, UniProt P25099)
T3 sequence (P25099 whole entry): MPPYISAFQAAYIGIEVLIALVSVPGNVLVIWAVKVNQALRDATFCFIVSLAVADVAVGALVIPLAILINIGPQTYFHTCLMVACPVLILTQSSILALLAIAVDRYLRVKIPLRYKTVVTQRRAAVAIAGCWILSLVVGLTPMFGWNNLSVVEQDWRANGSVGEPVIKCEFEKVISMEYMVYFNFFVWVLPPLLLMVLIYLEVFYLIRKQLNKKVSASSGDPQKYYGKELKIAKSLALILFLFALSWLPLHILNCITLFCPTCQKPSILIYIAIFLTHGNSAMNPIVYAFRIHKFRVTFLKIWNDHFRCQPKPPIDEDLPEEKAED
Description: Binding affinity towards adenosine A1 receptor in rat cortical membranes using N6-[3H]cyclohexyladenosine as radioligand

[26] = tested on: Rattus norvegicus; assay: Ratio of urinary excretion value (Na+ concentration) in treated rats to that in control rats, at a peroral dose of 6.25 mg/Kg; type: functional, Urine
[27] = tested on: Rattus norvegicus; assay: Percent inhibition of serum creatinine by the compound given as ratio of Cr value in treated to vehicle treated ones after intraperitoneal administration of 1 mg/kg of compound to rats(vehicle 4.70+/-0.17); type: functional; details: ip
[28] = tested on: Rattus norvegicus; assay: Oral diuretic activity was measured after oral administration of 1.6 mg/kg to rats(control volume is 0.93+/-0.03); type: functional, Urine
[29] = tested on: Rattus norvegicus; assay: Effect on urinary excretion potassium and sodium after oral administration of 25 mg/kg to rats(potassium and sodium excretion in control rat is 0.186+/-0.020); type: functional, Urine
[30] = tested on: Rattus norvegicus; assay: Ratio of sodium ion/potassium ion concentration in treated rats to that in control rats, at a peroral dose of 1.6 mg/Kg; type: functional
[31] = tested on: Rattus norvegicus; assay: Effect on urinary excretion potassium and sodium after oral administration of 25 mg/kg to rats(potassium and sodium excretion in control rat is 0.180+/-0.024); type: functional, Urine
[32] = tested on: Rattus norvegicus; assay: Percent inhibition of Urea nitrogen by the compound given as ratio of UN value in treated to vehicle treated ones after intraperitoneal administration of 1 mg/kg of compound to rats(vehicle 195.8+/-14.4); type: functional; details: 1 mg/kg
[33] = tested on: Rattus norvegicus; assay: Serum creatinine concentration measured after intraperitoneal administration of 1 mg/kg of compound to rats(vehicle 5.07+/-0.33); type: functional; details: 1 mg/kg
[34] = tested on: Rattus norvegicus; assay: Urea nitrogen concentration measured after intraperitoneal administration of 1 mg/kg of compound to rats(vehicle 195.8+/-14.4); type: functional; details: 1 mg/kg
[35] = tested on: Rattus norvegicus; assay: Oral diuretic activity was measured after oral administration of 25 mg/kg to rats(control volume is 1.00+/-0.09); type: functional, Urine
[36] = species: Rattus norvegicus; details: dose 1 mg/kg, route intraperitoneal

CCCn1c(=O)c2c(nc(C3CCCC3)n2C)n(CCC)c1=O
T/C [1]: 1.45
inhibition in vivo at 1 mg/kg [2]: 30%
Cr [3]: 3.07 mg/dL
Urine volume [4]: 1.07 ml 6hr-1 100g-1
inhibition in vivo at 10 mg/kg [5]: 25%
UN [6]: 99.9 mg/dL
Na [7]: 0.184 m equiv 6hr-1 100g-1
inhibition in vivo at 10 mg/kg [8]: 26%
Ki [9]: 3900 nM
Ki [10]: > 10000 nM
Cr [11]: 2.62 mg/dL
T/C [12]: 1.07
UN [13]: 107.9 mg/dL
inhibition in vivo at 1 mg/kg [14]: 27%
Na+/K+ [15]: 1

FC(F)(F)c1nnc2c(NC3CCCC3)nc3ccc(Cl)cc3n12
T/C [16]: 2.17
Cr [17]: 2.58 mg/dL
Ki [18]: 2100 nM
Urine volume [19]: 1.74 ml 6hr-1 100g-1
T/C [20]: 1.15
T/C [1]: 1.91
T/C [21]: 1.22
UN [22]: 88.7 mg/dL
Na [23]: 0.212 m equiv 6hr-1 100g-1
inhibition in vivo at 1 mg/kg [24]: 42%
Ki [25]: 5.5 nM
T/C [26]: 1.82
inhibition in vivo at 1 mg/kg [27]: 45%
Ki [9]: 36 nM
Ki [10]: 710 nM
T/C [12]: 1.74
Urine volume [28]: 1.07 ml 6hr-1 100g-1
Na [29]: 0.323 m equiv 6hr-1 100g-1
Na+/K+ [15]: 1.31
Na+/K+ [30]: 0.98

CCCn1c(=O)c2nc(C3CC4CCC3C4)[nH]c2n(CCC)c1=O (stereo in doubt; 20)
T/C [16]: 1.12
T/C [1]: 2.13
Na [31]: 0.372 m equiv 6hr-1 100g-1
Inhibition [32]: 49%
Cr [33]: 2.54 mg/dL
UN [34]: 98.8 mg/dL
T/C [26]: 1.27
Urine volume [35]: 2.13 ml 6hr-1 100g-1
Ki [10]: 290 nM
T/C [12]: 2.06
Na+/K+ [15]: 1.63
Inhibition [36]: 50%
